Earlier results in PMC3845828 (Clinical cancer research : an official journal of the …, 2012).

Experiments:
RAGE / S100P = details: ref [15]
HMGB-1 binding to RAGE = details: in vitro; ref [8]
cancer cells = details: pretreatment of cancer cells in vitro, experimental in vivo model; ref [8]

HMGB-1-derived peptide: peptide consisting of residues 150–183 of HMGB-1 (end of the B-box and its linker to the acidic tail) (KLKEKYEKDIAAYRAKGKPDAAKKGVVKAEKSKK; UniProt P09429 150-183, looked up, fragment)
binding and activation of RAGE by S100P (RAGE / S100P): blocked the binding and activation of RAGE by S100P | competition with HMGB-1 binding to RAGE (HMGB-1 binding to RAGE): successfully compete with HMGB-1 binding to RAGE | migration and metastasis of cancer cells pretreated with peptide (cancer cells): successfully blocked their subsequent migration and their metastasis
